In US5286895A, “Cholesterol lowering compounds” (Merck & Co., Inc., priority 1992, dated 1994):

Experiments:
cholesterol synthesis = test: Measurement of inhibition of cholesterol synthesis in mice ([3H]mevalonolactone incorporation in liver); assay type: in vivo; conditions: female Swiss-Webster mice, subcutaneous
Experimental: Female Swiss-Webster mice, approximately 25 grams, were dosed subcutaneously with the test compound or just with saline for controls. The tri-sodium salt of Compound A was dissolved in 0.9% NaCl and administered in a volume of less than 0.1 ml. Thirty minutes after receiving a dose of the test compound or saline for the controls, the mice were subcutaneously administered a dose of 0.5 uCi of R,S-[5-^3 H]mevalonolactone (35 Ci/mmol). The tracer mevalonolactone was dissolved in 0.9% NaCl and administered in a volume of 0.05 ml. Thirty minutes after receiving the dose of mevalonolactone, the animals were euthanized, and the livers were removed and saponified in a solution of 4 ml of 40% KOH and 2 ml of 95% ethanol overnight at 65° C. The saponified livers were extracted with two 5 ml volumes of petroleum ether. Incorporation of ^3 H into this petroleum ether fraction was used to measure cholesterol synthesis. Inhibition of cholesterol synthesis was determined by comparing the incorporation of ^3 H in the petroleum ether fraction in control animals to the incorporation in the petroleum ether fraction in the compound test animals.

squalene synthetase = biological target: T1, squalene synthetase (Rattus norvegicus, UniProt Q02769); test: Squalene synthetase assay (rat liver microsomes, [4-14C]farnesyl-pyrophosphate); assay type: biochemical; conditions: 30° C., 20 minutes, read-out: IC50, squalene synthetase inhibition
T1 construct: The resulting microsomal pellet was resuspended in a volume of the above homogenizing buffer; from tissue; host or cells: rat liver microsomes (male Charles River CD rats fed 0.1% lovastatin)
T1 sequence (Q02769 1-416): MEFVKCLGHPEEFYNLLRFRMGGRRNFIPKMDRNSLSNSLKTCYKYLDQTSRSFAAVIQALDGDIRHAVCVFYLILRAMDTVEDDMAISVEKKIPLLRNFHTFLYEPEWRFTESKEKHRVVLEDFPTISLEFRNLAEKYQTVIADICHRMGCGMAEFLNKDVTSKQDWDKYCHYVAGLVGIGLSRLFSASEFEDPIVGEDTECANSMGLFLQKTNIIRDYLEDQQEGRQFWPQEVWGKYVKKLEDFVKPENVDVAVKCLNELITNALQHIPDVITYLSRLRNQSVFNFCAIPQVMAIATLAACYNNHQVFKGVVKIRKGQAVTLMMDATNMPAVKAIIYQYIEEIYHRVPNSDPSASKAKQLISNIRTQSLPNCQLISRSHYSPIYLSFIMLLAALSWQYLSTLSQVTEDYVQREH
Experimental: Male, Charles River CD rats (120 to 150 g) were fed a diet containing 0.1% lovastatin for 4 days. The livers from these rats were homogenized in 5 volumes (ml/g) of ice cold 50 mM HEPES (4-(2-hydroxyethyl)-1-piperazine-ethanesulfonic acid), 5 mM EDTA(ethylenediaminetetraacetic acid) pH 7.5 with a Potter-Elvehjem type tissue grinder. The homogenate was centrifuged twice at 20,000× g for 15 minutes at 4° C., discarding the pellet each time. The supernatant was then centrifuged at 100,000× g for 1 hour at 4° C. The resulting microsomal pellet was resuspended in a volume of the above homogenizing buffer equal to one-fifth the volume of the original homogenate. This microsomal preparation has a protein concentration of about 7 mg/ml. The microsomal suspensions were stored in aliquots at -70° C. Squalene synthetase activity in these aliquots is stable for at least several months.
Reaction were performed in 16×125 mm screw cap test tubes. A batch assay mix was prepared from the following solution:
This assay mix was degassed under a vacuum and flushed with N2. […] Ten ml of scintillation fluid was added to the heptane solution and radioactivity was determined by liquid scintillation counting.
Percent inhibition is calculated by the formula: [formula]
IC50 values were determined by plotting the log of the concentration of the test compound versus the percentage inhibition.

IC50 (squalene synthetase): ~300 nM
Structure (SMILES): C/C(=C\C(C)Cc1ccccc1)CCCCCC(C(=O)O)C(O)(CC(=O)O)C(=O)O (stereo not drawn) [Compound A]
ED50 (cholesterol synthesis; Mus musculus, sc, tri-sodium salt in 0.9% NaCl, dosed 30 min before [3H]mevalonolactone): ~15 mg/kg | inhibition of cholesterol synthesis in mice (in words) (cholesterol synthesis): potent inhibitor of cholesterol synthesis in mice
